The source of these data is PubChem BioAssay (NCI).

Values joined by “and” are separate entries in the source; they are usually repeats but may differ in a detail not shown here. Equal entries are not always repeated.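 Results reflect a 48-hour exposure of cells in 96-well plates to compound at five concentrations. Here, GI50 denotes the concentration required for 50% inhibition of growth. TGI: total growth inhibition.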 Where only a bound is given, the exact number is not on record here.

Some test systems named below: SF-268 CNS; UO-31 renal; KM12 colon; OVCAR-4 ovarian; HS 578T breast; OVCAR-8 ovarian; SK-OV-3 ovarian; EKVX NSCLC; SN12C renal; HOP-62 NSCLC.
Assay in all cases: NCI-60 cell line screen, 48 h

For `Oc1c(Cl)cc(Cl)c2ccc(Cn3cc(-c4ccc(C(F)(F)F)cc4)nn3)nc12`, the GI50 is 4.64 µM in the assay with SF-268 CNS; 1.36 µM in the assay on UO-31 renal; 12.1 µM with KM12 colon; 1.43 µM in the assay with OVCAR-4 ovarian; 2.38 µM in the assay with HS 578T breast; 2.75 µM with OVCAR-8 ovarian. For the same compound, the GI50 in the assay on SK-OV-3 ovarian was 17.7 µM; with EKVX NSCLC, 5.8 µM; with SN12C renal, 2.91 µM; with HOP-62 NSCLC, 16.4 µM. The TGI in the assay on SF-268 CNS worked out at 20.1 µM; in the assay with UO-31 renal, 3.62 µM; with KM12 colon it was 26.6 µM; in the assay with OVCAR-4 ovarian, 3.37 µM; in the assay on HS 578T breast it was 8.44 µM; with OVCAR-8 ovarian it was 11.5 µM. The TGI with SK-OV-3 ovarian is 33 µM; in the assay on EKVX NSCLC, 19.5 µM; in the assay with SN12C renal it was 11.6 µM; with HOP-62 NSCLC it was 35.2 µM.

On to `CCCCCCCC/C=C/CCCCCCCC1=NC(C)(C)CN1CCO`, for which the GI50 in the assay on SF-268 CNS is 1.46 µM; in the assay with UO-31 renal, 2.18 µM; with KM12 colon, 1.69 µM; in the assay with OVCAR-4 ovarian, 2.8 µM; in the assay on HS 578T breast, 1.76 µM; in the assay on OVCAR-8 ovarian, 2.29 µM. In addition, the GI50 in the assay on SK-OV-3 ovarian was 9.97 µM; in the assay on EKVX NSCLC, 3.55 µM; in the assay on SN12C renal, 4.7 µM; with HOP-62 NSCLC, 1.83 µM. Also, the TGI in the assay on SF-268 CNS was 2.78 µM; in the assay with UO-31 renal it was 6.85 µM; in the assay with KM12 colon, 3.06 µM; in the assay with OVCAR-4 ovarian, 8.59 µM; in the assay with HS 578T breast, 3.98 µM; in the assay on OVCAR-8 ovarian it was 4.74 µM. Further, the TGI was found to be 24.2 µM in the assay with SK-OV-3 ovarian, 12.8 µM in the assay with EKVX NSCLC, 18 µM in the assay with SN12C renal and 3.29 µM with HOP-62 NSCLC.

Consider `CCOC(=O)C(C#N)C1=CC(=O)C(=O)c2ccc(O)cc21` (centres undefined), for which the TGI in the assay on SF-268 CNS, with UO-31 renal, in the assay on KM12 colon, in the assay on OVCAR-4 ovarian, with HS 578T breast and in the assay with OVCAR-8 ovarian was more than 100 µM throughout. The TGI with SK-OV-3 ovarian, in the assay with EKVX NSCLC, in the assay with SN12C renal and with HOP-62 NSCLC was more than 100 µM in each case.

On to `CCOc1ccn(-c2ccc(F)cc2)c(=O)c1C(=O)Nc1ccc(Oc2ccnc(N)c2Cl)c(F)c1`, for which the GI50 is 10.9 µM in the assay with SF-268 CNS; 8.99 µM in the assay with UO-31 renal; 0.404 µM in the assay on KM12 colon; 19.1 µM with OVCAR-4 ovarian; 3.7 µM in the assay on HS 578T breast; 15.2 µM in the assay with OVCAR-8 ovarian. The GI50 in the assay with SK-OV-3 ovarian was 11.7 µM; in the assay on EKVX NSCLC, 31.3 µM; with SN12C renal, 5.03 µM; in the assay on HOP-62 NSCLC, 13.2 µM. The TGI was more than 100 µM in the assay with SF-268 CNS; 63.4 µM in the assay with UO-31 renal; more than 100 µM in the assay with KM12 colon; more than 100 µM with OVCAR-4 ovarian; 30.6 µM with HS 578T breast; more than 100 µM in the assay with OVCAR-8 ovarian. Also, the TGI with SK-OV-3 ovarian was 41.6 µM; in the assay on EKVX NSCLC, more than 100 µM; in the assay with SN12C renal, more than 100 µM; in the assay with HOP-62 NSCLC, more than 100 µM.

For `O=C1c2ccccc2-c2c1c1ccccc1c(=O)n2CCCNCCn1c2c(c3ccccc3c1=O)C(=O)c1ccccc1-2`, the GI50 in the assay on SF-268 CNS was 7.6 µM; in the assay on KM12 colon, 2.32 µM; in the assay with OVCAR-4 ovarian, 11.5 µM; in the assay with HS 578T breast it was 16.5 µM; in the assay on OVCAR-8 ovarian, 2.73 µM; with SK-OV-3 ovarian, 19.2 µM. The GI50 was 12.5 µM in the assay on EKVX NSCLC, 10.9 µM in the assay on SN12C renal and 9.69 µM in the assay on HOP-62 NSCLC. Moreover, the TGI is 26.5 µM in the assay on SF-268 CNS; 17.3 µM with UO-31 renal; more than 100 µM with KM12 colon; 24.9 µM with OVCAR-4 ovarian; 64.6 µM with HS 578T breast; 16.6 µM in the assay with OVCAR-8 ovarian. Moreover, the TGI with SK-OV-3 ovarian was more than 100 µM; in the assay on EKVX NSCLC, 27.2 µM; in the assay on SN12C renal it was 22.9 µM; with HOP-62 NSCLC, 25.3 µM.

Take `COc1cc(C(=O)c2cnc(-c3cccc4[nH]ccc34)[nH]2)cc(OC)c1OC`: the TGI in the assay on SF-268 CNS is more than 100 µM; in the assay on UO-31 renal, 21 µM; in the assay on KM12 colon it was 24 µM; in the assay on OVCAR-4 ovarian it was more than 100 µM; in the assay with HS 578T breast, more than 100 µM; in the assay on OVCAR-8 ovarian it was 48.2 µM. Further, the TGI was less than 0.01 µM with SK-OV-3 ovarian, more than 100 µM in the assay with EKVX NSCLC, more than 100 µM in the assay on SN12C renal and 20 µM in the assay with HOP-62 NSCLC. Also, the GI50 was less than 0.01 µM with UO-31 renal; 0.04 µM and < 0.01 µM in the assay on KM12 colon; less than 0.01 µM with OVCAR-4 ovarian; 0.0542 µM and < 0.01 µM with SK-OV-3 ovarian; less than 0.01 µM in the assay with HOP-62 NSCLC.
